Results from ChEMBL document CHEMBL4819021, “Paratrimerins J-Y, Dimeric Coumarins Isolated from the Stems of Paramignya trimera” (J Nat Prod, 2021).
pIC50: −log10 of the molar value. Active and inactive are the calls of the source. The rule behind the calls is not given here.

Experiments:
Assay type in all cases: functional, cell-based
SK-HEP1 = assay: Cytotoxicity against human SK-HEP1 cells assessed as reduction in cell viability at 40 uM measured after 72 hrs by MTS assay
COLO 205 = assay: Cytotoxicity against human COLO 205 cells assessed as reduction in cell viability at 40 uM measured after 72 hrs by MTS assay
HCT-8 = assay: Cytotoxicity against human HCT-8 cells assessed as reduction in cell viability at 40 uM measured after 72 hrs by MTS assay
HCT-116 = assay: Cytotoxicity against human HCT-116 cells assessed as reduction in cell viability at 40 uM measured after 72 hrs by MTS assay
KM12 = assay: Cytotoxicity against human KM12 cells assessed as reduction in cell viability at 40 uM measured after 72 hrs by MTS assay
RKO = assay: Cytotoxicity against human RKO cells assessed as reduction in cell viability at 40 uM measured after 72 hrs by MTS assay
SW480 = assay: Cytotoxicity against human SW480 cells assessed as reduction in cell viability at 40 uM measured after 72 hrs by MTS assay
SW-620 = assay: Cytotoxicity against human SW-620 cells assessed as reduction in cell viability at 40 uM measured after 72 hrs by MTS assay
BT-549 = assay: Cytotoxicity against human BT-549 cells assessed as reduction in cell viability at 40 uM measured after 72 hrs by MTS assay
HCC38 = assay: Cytotoxicity against human HCC38 cells assessed as reduction in cell viability at 40 uM measured after 72 hrs by MTS assay
HCC70 = assay: Cytotoxicity against human HCC70 cells assessed as reduction in cell viability at 40 uM measured after 72 hrs by MTS assay
HCC1428 = assay: Cytotoxicity against human HCC1428 cells assessed as reduction in cell viability at 40 uM measured after 72 hrs by MTS assay
Hs-578T = assay: Cytotoxicity against human Hs-578T cells assessed as reduction in cell viability at 40 uM measured after 72 hrs by MTS assay
MDA-MB-231 = assay: Cytotoxicity against human MDA-MB-231 cells assessed as reduction in cell viability at 40 uM measured after 72 hrs by MTS assay
MDA-MB-435 = assay: Cytotoxicity against human MDA-MB-435 cells assessed as reduction in cell viability at 40 uM measured after 72 hrs by MTS assay
MDA-MB-468 = assay: Cytotoxicity against human MDA-MB-468 cells assessed as reduction in cell viability at 40 uM measured after 72 hrs by MTS assay
MCF7 = assay: Cytotoxicity against human MCF7 cells assessed as reduction in cell viability at 40 uM measured after 72 hrs by MTS assay
SK-BR-3 = assay: Cytotoxicity against human SK-BR-3 cells assessed as reduction in cell viability at 40 uM measured after 72 hrs by MTS assay
T47D = assay: Cytotoxicity against human T47D cells assessed as reduction in cell viability at 40 uM measured after 72 hrs by MTS assay
Huh-7 = assay: Cytotoxicity against human Huh-7 cells assessed as reduction in cell viability measured after 72 hrs by MTS assay; details: Huh-7, 72 h
HT-1080 = assay: Cytotoxicity against human HT-1080 cells assessed as reduction in cell viability measured after 72 hrs by MTS assay; details: HT-1080, 72 h
HT-29 = assay: Cytotoxicity against human HT-29 cells harboring Ras/Raf mutant assessed as reduction in cell viability measured after 72 hrs by MTS assay; details: HT-29, 72 h

Row | Compound | Activity (SK-HEP1) | Activity (COLO 205) | Activity (HCT-8) | Activity (HCT-116) | Activity (KM12) | Activity (RKO) | Activity (SW480) | Activity (SW-620) | Activity (BT-549) | Activity (HCC38) | Activity (HCC70) | Activity (HCC1428) | Activity (Hs-578T) | Activity (MDA-MB-231) | Activity (MDA-MB-435) | Activity (MDA-MB-468) | Activity (MCF7) | Activity (SK-BR-3) | Activity (T47D) | other results
1 | CC1=C[C@H](c2cc3ccc(=O)oc3cc2O[C@@H]2O[C@H](CO)[C@@H](O)[C@H](O)[C@H]2O)[C@](C)(/C=C/c2cc3ccc(=O)oc3cc2O[C@@H]2O[C@H](COC3OC[C@@H](O)[C@H](O)[C@H]3O)[C@@H](O)[C@H](O)[C@H]2O)CC1 (some centres undefined) | inactive | inactive | inactive | inactive | inactive | inactive | inactive | inactive | inactive | inactive | inactive | inactive | inactive | inactive | inactive | inactive | inactive | inactive | inactive | –
2 | CC1=C[C@@H](c2cc3ccc(=O)oc3cc2O[C@@H]2O[C@H](COC3OC[C@@H](O)[C@H](O)[C@H]3O)[C@@H](O)[C@H](O)[C@H]2O)[C@@](C)(/C=C/c2cc3ccc(=O)oc3cc2O[C@@H]2O[C@H](COC3OC[C@@H](O)[C@H](O)[C@H]3O)[C@@H](O)[C@H](O)[C@H]2O)CC1 (some centres undefined) | inactive | inactive | inactive | inactive | inactive | inactive | inactive | inactive | inactive | inactive | inactive | inactive | inactive | inactive | inactive | inactive | inactive | inactive | inactive | –
3 | CC1=C[C@@H](c2cc3ccc(=O)oc3cc2O[C@@H]2O[C@H](CO[C@@H]3OC[C@](O)(CO)[C@H]3O)[C@@H](O)[C@H](O)[C@H]2O)[C@@](C)(/C=C/c2cc3ccc(=O)oc3cc2O[C@@H]2O[C@H](CO)[C@@H](O)[C@H](O)[C@H]2O)CC1 | inactive | inactive | inactive | inactive | inactive | inactive | inactive | inactive | inactive | inactive | inactive | inactive | inactive | inactive | inactive | inactive | inactive | inactive | inactive | –
4 | CC(C)=CCC/C(C)=C/Cc1cc(/C=C/C(=O)O[C@@H](Cc2c(OCC=C(C)C)ccc3ccc(=O)oc23)C(C)(C)O)c(O)cc1O | – | – | – | – | – | – | – | – | – | – | – | – | – | – | – | – | – | – | – | pIC50 (Huh-7): 4.83; pIC50 (HT-1080): 4.74; pIC50 (HT-29): 4.65
5 | CC1=C[C@@H](c2cc3ccc(=O)oc3cc2O[C@@H]2O[C@H](COC3OC[C@@H](O)[C@H](O)[C@H]3O)[C@@H](O)[C@H](O)[C@H]2O)[C@@](C)(/C=C/c2cc3ccc(=O)oc3cc2O[C@@H]2O[C@H](CO)[C@@H](O)[C@H](O)[C@H]2O)CC1 (some centres undefined) | inactive | inactive | inactive | inactive | inactive | inactive | inactive | inactive | inactive | inactive | inactive | inactive | inactive | inactive | inactive | inactive | inactive | inactive | inactive | –
